Values joined by “and” are separate entries in the source; they are usually repeats but may differ in a detail not shown here. Identical values can stand only once.
Legend:
[1] = tested on: Saccharomyces cerevisiae (ATCC 287); test: MIC of the peptides against yeast cells; format: cell-based; details: PDB, 96-well two-fold dilution 250 to 2 µg/mL, 0.5–2×10^3 cells/mL, overnight 30°C, growth observed visually
Protocol: Saccharomyces cerevisiae (ATCC 287) was grown in Potato Dextrose Broth (PDB) overnight at 30°C with shaking at 220 rpm. The cultures were vortexed vigorously and the cell suspension adjusted to 1–5×10^6 cells/mL with PDB (McFarland standard 0.5) and then diluted 1∶200 with PDB to a final concentration of 0.5–2×10^3 cells/mL [37]. The MIC assays were carried out in 96-well plates as described previously. Peptides (PuroA, Pina-M, Pina-W→F and PuroB) in 25 µL volumes were added to the first empty well and a two-fold dilution was carried out across each row with a starting peptide concentration of 250 µg/mL and a final one of 2 µg/mL. Test wells were subsequently inoculated with 75 µL yeast cells (0.5–2×10^3 cells/mL) and incubated overnight at 30°C. Negative control (no peptide) and positive control (fungicide Mycobutanil) wells were also prepared. The MIC was defined as the lowest concentration of the peptide required to inhibit fungal growth, observed visually.

[2] = tested on: plasmid DNA (pBluescript SK+); test: Gel retardation assay for in vitro DNA binding; details: 100 ng plasmid DNA in 10 µL MilliQ water, 1 h room temperature, peptide 16–500 µg/mL, post-electrophoresis EtBr staining, triplicate assays
Protocol: This test assesses any peptide-DNA binding by noting the retardation of the rate of migration of DNA bands through agarose gels. A number of methods were tested. As per Hsu et al., DNA of a plasmid (200 ng) or a commercial molecular weight marker (50 ng) was mixed with a peptide (to final concentrations of 32, 64, 125 or 250 µg/mL) in 15 µL of 10 mM Tris-1 mM EDTA buffer (pH 8.0), incubated at room temperature for 2 min, then electrophoresed in 0.5% or 1.0% agarose gels containing 0.5 µg/mL ethidium bromide (EtBr). Following Park et al., 100 ng plasmid DNA was mixed with a peptide (to different concentrations) in 20 µL binding buffer (5% glycerol, 10 mM Tris-HCl (pH 8.0), 1 mM EDTA, 1 mM DTT, 20 mM KCl, 50 µg/mL BSA), held for 1 h at room temperature, then electrophoresed in EtBr-containing gels. Finally the protocols were modified to eliminate any interference of EtBr in the initial peptide-DNA binding. Plasmid DNA (100 ng) was mixed with a peptide (to final concentrations of 16, 32, 64, 125, 250 or 500 µg/mL) in 10 µL of MilliQ water, held at room temperature for 1 h and electrophoresed, followed by emersion of gels in EtBr solution (0.5 µg/mL) for 30 min before imaging.

For “FPVTFRFFKFFKG-NH2 [Pina-W→F, PuroA-based peptide with all Trps substituted with Phe residues]”, the “MIC against S. cerevisiae” value [1] was 250 µg/mL, the “Peptide concentration inducing gel retardation, Partial” value [2] was 32 ± 0 µg/mL and the “Peptide concentration inducing gel retardation, Full” value ([2]; complete inhibition of migration) was 64 µg/mL and 64 ± 0 µg/mL.
